Data on two molecules can be found in patent publication US20200170983A1, “METHODS FOR THE TREATMENT OF BLADDER CANCER” (Cipla Limited, priority 2015, published 2020).

Where two headings read alike, the source gives them in different places.

Assay [1] concerns 5 human tumor cell lines of bladder cancer. As to the kind of experiment: In vitro 3D clonogenic assay, mean over the panel. It is filed as cell-based. To be noted: for IC50: colony formation; for IC50, Geo. Mean: geometric mean of five cell lines. How it is done: (§1) The clonogenic assay was carried out in a 96 well plate format using ultra low attachment plates. For each test, cells were prepared as described above and assay plates were prepared as follows: each test well contained a layer of semi-solid medium with tumor cells (50 μL), and a second layer of medium supernatant with or without test compound (100 μL). The cell layer consisted of 2·103 to 3·103 tumor cells per well, which were seeded in 50 μL/well cell culture medium (IMDM, supplemented with 20% (v/v) fetal calf serum, 0.01% (w/v) gentamicin, and 0.4% (w/v) agar. After 24 hours the test compounds were added after serial dilution in cell culture medium, and left on the cells for the duration of the experiment (continuous exposure, 100 μl drug overlay). Every plate included six untreated control wells and drug-treated groups in duplicate at 9 concentrations. Cultures were incubated at 37° C. and 7.5% CO2 in a humidified atmosphere for 8 to 13 days and monitored closely for colony growth using an inverted microscope. Within this period, ex vivo tumor growth led to the formation of colonies with a diameter of >50 μm. At the time of maximum colony formation, counts were performed with an automatic image analysis system (Bioreader 5000-Wa Biosys GmbH). 48 hours prior to evaluation, vital colonies were stained with a sterile aqueous solution of 2-(4-iodophenyl)-3-(4-nitrophenyl)-5-phenyltetrazolium chloride (1 mg/ml, 100 μl/well).

Assay [2] relates to BXF T24. As to the kind of experiment: Combination study, 3D clonogenic assay, 5x5 matrix, Bliss independence. In kind it is cell-based, human. To be noted: BXF T24, monotherapy controls of the 5x5 combination matrix, read-out: IC50, colony formation, single agent. How it is done:
(§2) The objective of this study was to assess anti-tumor efficacy of adapalene in combination with cisplatin in a 5×5 matrix combination format against various bladder cancer cell lines. Efficacy of the combinations was assessed by measuring anchorage-independent growth and in vitro tumor colony formation using a 3D clonogenic assay in cell lines BXF 1036L, BXF 1218L, and BXF T24.
(§3) The compounds were tested in bladder cell lines, namely BXF 1036L, BXF 1218L, and BXF T24. Cells lines of BXF 1036L and BXF 1218L were established at Oncotest in Freiburg from the corresponding patient-derived xenografts. BXF T24 cells were obtained from American Type Culture Collection (Rockville, Md., USA). Authenticity of cell lines was confirmed at the DSMZ by STR analysis.
(§4) Cell lines were routinely passaged once or twice weekly and maintained in culture for up to 20 passages. Cells were grown at 37° C. in a humidified atmosphere with 5% CO2 in RPMI 1640 medium (25 mM HEPES, with L-glutamine, Biochrom) supplemented with 10% (v/v) fetal calf serum and 0.1 mg/mL gentamicin. The percentage of viable cells was determined in a Neubauer-hemocytometer using trypan blue exclusion.
(§5) The clonogenic assay was carried out in a 96 well plate format using ultra low attachment plates. For each test cells were prepared as described above, and assay plates were prepared as follows: each test well contained a layer of semi-solid medium with tumor cells (50 μl), and a second layer of medium supernatant with or without test compounds (100 μl). The cell layer consisted of 5·10^3 to 7.5·10^3 tumor cells per well, which were seeded in 50 μl/well cell culture medium (IMDM, supplemented with 20% (v/v) fetal calf serum, 0.01% (w/v) gentamicin, and 0.4% (w/v) agar). After 24 h, the soft-agar layer was covered with 90 μl of the same culture medium without agar, and compounds were added after serial dilution in DMSO and transfer in cell culture medium and left on the cells for the duration of the experiment (continuous exposure, 100 μL total drug overlay). Every plate included six untreated control wells and drug-treated groups. Cultures were incubated at 37° C. and 7.5% CO2 in a humidified atmosphere for 8 to 13 days and monitored closely for colony growth using an inverted microscope. Within this period, ex vivo tumor growth led to the formation of colonies with a diameter of >50 μm. At the time of maximum colony formation, counts were performed with an automatic image analysis system (CellInsight NXT, Thermo Scientific). 48 hours prior to evaluation, vital colonies were stained with a sterile aqueous solution of 2-(4-iodophenyl)-3-(4-nitrophenyl)-5-phenyltetrazolium chloride (1 mg/ml, 100 μl/well).

In another assay the test system is BXF 1036L. Described as above. It is filed as cell-based, human. The conditions noted are these: monotherapy controls of the 5x5 combination matrix, read-out: IC50, colony formation, single agent. How it is done: as §2, §3, §4, §5
The test system of assay [3] is five selected human bladder cancer cell lines. Briefly: In vitro 2D assay, mean over the panel. It is filed as cell-based. From the text: (§6) In the present study the human bladder cancer cell lines BXF 1036, BXF 1218, BXF 1352, 5637 and T24 were used. BXF 1036, BXF 1218 and BXF 1352 were established at Oncotest from the corresponding human patient derived xenograft. T24 was purchased from ATCC (Rockville, Md., USA) and 5637 was from DSMZ (Braunschweig, Germany). Authenticity of cell lines was confirmed at the DSMZ by STR (short tandem repeat) analysis, a PCR based DNA-fingerprinting methodology. Cell lines were routinely passaged once or twice weekly and maintained in culture for up to 20 passages. All cells were grown at 37° C. in a humidified atmosphere with 5% CO2 in RPMI 1640 medium (25 mM HEPES, with L-glutamine, #FG1385, Biochrom, Berlin, Germany) supplemented with 10% (v/v) fetal calf serum (Sigma, Taufkirchen, Germany) and 0.1 mg/mL gentamicin (Life Technologies, Karlsruhe, Germany).
(§7) The CellTiter-Blue® Cell Viability Assay (#G8081, Promega) was used according to manufacturer's instructions. Briefly, cells were harvested from exponential phase cultures, […] on the cell line's growth rate. After a 24 h recovery period to allow the cells to resume exponential growth, test compounds were added. Compounds were applied at 9 concentrations in half-log increments in duplicate and treatment continued for 96 h. After 96 h treatment of cells, 20 μL/well CellTiter-Blue® reagent was added.
(§8) Following an incubation period of up to four hours, fluorescence (FU) was measured by using the Enspire Multimode Plate Reader (excitation λ=531 nm, emission λ=615 nm). For calculations, the mean values of duplicate/sixfold (untreated control) data were used. Sigmoidal concentration-response curves were fitted to the data points (T/C values) obtained for each cell line using 4 parameter non-linear curve fit (Oncotest Warehouse Software).

The test system of assay [4] is BXF 1218. As to the kind of experiment: In vitro 3D clonogenic assay (colony formation in semi-solid medium). In kind it is cell-based, human. To be noted: for IC50: BXF 1218, absolute IC50. How it is done: as §1
The subject of assay [5] is BXF 1036. The description is as above. In kind it is cell-based, human. To be noted: for IC50: BXF 1036, absolute IC50. How it is done:
as §1

Assay [6] concerns BXF T24. The assay is described as above. In kind it is cell-based, human. To be noted: for IC50: BXF T24, absolute IC50. How it is done: as §1
Another assay relates to BXF 5637. Described as above. In kind it is cell-based, human. The conditions noted are these: BXF 5637, absolute IC50. How it is done: as §1
In assay [7] the test system is BXF 1352. The assay is described as above. It is filed as cell-based, human. To be noted: BXF 1352, absolute IC50. How it is done: as §1
In assay [8] the test system is BXF 1218. As to the kind of experiment: In vitro 2D assay (CellTiter-Blue cell viability). In kind it is cell-based, human. The conditions noted are these: BXF 1218, 96 h treatment.
Text: as §6, §7, §8
(The colour change of resazurin is a common sign of viable cells or microbes.)

Assay [9] relates to BXF 1036. Briefly: In vitro 2D assay (CellTiter-Blue cell viability). It is filed as cell-based, human. To be noted: BXF 1036, 96 h treatment.
Text: as §6, §7, §8

For assay [10], the system named is BXF 1352. Briefly: In vitro 2D assay (CellTiter-Blue cell viability). In kind it is cell-based, human. The conditions noted are these: BXF 1352, 96 h treatment.
Text: as §6, §7, §8

The test system of the next assay is T24. Briefly: In vitro 2D assay (CellTiter-Blue cell viability). In kind it is cell-based, human.
Text: as §6, §7, §8

A further assay relates to 5637. Briefly: In vitro 2D assay (CellTiter-Blue cell viability). In kind it is cell-based, human.
Text: as §6, §7, §8

A further assay relates to BXF 1218L. Briefly: Combination study, 3D clonogenic assay, 5x5 matrix, Bliss independence. In kind it is cell-based, human. The conditions noted are these: monotherapy controls of the 5x5 combination matrix, read-out: IC50, colony formation, single agent. How it is done: The objective of this study was to assess anti-tumor efficacy of adapalene in combination with cisplatin in a 5×5 matrix combination format against various bladder cancer cell lines. Efficacy of the combinations was assessed by measuring anchorage-independent growth and in vitro tumor colony formation using a 3D clonogenic assay in cell lines BXF […], BXF […], and BXF T24. […] The compounds were tested in bladder cell lines, namely BXF […], BXF […], and BXF T24. Cells lines of BXF […] and BXF […] were established at Oncotest in Freiburg from the corresponding patient-derived xenografts. BXF T24 cells were obtained from American Type Culture Collection (Rockville, Md., USA). Authenticity of cell lines was confirmed at the DSMZ by STR analysis. Cell lines were routinely passaged once or twice weekly and maintained in culture for up to 20 passages. Cells were grown at 37° C. in a humidified atmosphere with 5% CO2 in RPMI 1640 medium (25 mM HEPES, with L-glutamine, Biochrom) supplemented with 10% (v/v) fetal calf serum and 0.1 mg/mL gentamicin. The percentage of viable cells was determined in a Neubauer-hemocytometer using trypan blue exclusion. […] Cultures were incubated at 37° C. and 7.5% CO2 in a humidified atmosphere for 8 to 13 days and monitored closely for colony growth using an inverted microscope. […]

The term IC50 denotes the point on the concentration scale where inhibition reaches its midpoint. Consider `COc1ccc(-c2ccc3cc(C(=O)O)ccc3c2)cc1C12CC3CC(CC(C3)C1)C2` [Adapalene], for which the IC50 in assay [1] (Homo sapiens, read-out: mean absolute IC50 value) came out at 14 µM; in [1] (Homo sapiens, read-out: mean relative IC50 value), 7.37 µM; with BXF T24 [2] (Homo sapiens), 3.44 µM; in the assay on BXF 1036L (Homo sapiens), 10.8 µM; in assay [3] (Homo sapiens, geometric mean of five cell lines, read-out: IC50, Geo. Mean) it was 6.84 µM; in the assay with BXF 1218 [4] (Homo sapiens), 4.76 µM. The IC50 with BXF 1036 [5] (Homo sapiens) was 9.72 µM; in the assay with BXF T24 [6] (Homo sapiens), at least 100 µM; in the assay on BXF 5637 (Homo sapiens), 9.11 µM; in the assay on BXF 1352 [7] (Homo sapiens), 12.8 µM; in the assay on BXF 1218 [8] (Homo sapiens) it was 6 µM; with BXF 1036 [9] (Homo sapiens), 9.91 µM. In addition, the IC50 with BXF 1352 [10] (Homo sapiens) is 14 µM; in the assay on T24 (Homo sapiens, T-24, T24, 96 h treatment), 3.33 µM; with 5637 (Homo sapiens, 2D assay, 5637, 96 h treatment) it was 5.42 µM. Besides, the “IC50, Geo. Mean” value in [1] was determined as 14.01 µM. Also, in assay [3] (IC50 of T24 vs BXF 1352), the “difference between the most sensitive and most resistant cell line” value is reported as 4 fold. For the same molecule, the “activity relative to mean IC50 (above average = individual IC50 value < 1/2 mean IC50)” value in the assay with BXF 1218 [4] (BXF 1218) and with BXF T24 [6] (BXF T-24) was “above average activity” each time.

For the molecule `N.N.[Cl][Pt][Cl]` [Cisplatin, cisplatin], the IC50 in [1] (read-out: mean absolute IC50 value) was 9.93 µM; in assay [1] (read-out: mean relative IC50 value), 9.71 µM; in the assay with BXF T24 [2], 77.4 µM; in the assay with BXF 1036L, 6.09 µM; in assay [3] (all cell lines tested, read-out: geometric mean absolute IC50 value) it was 8.57 µM; with BXF 1218 [4], 5.36 µM. Moreover, the IC50 worked out at 3.97 µM with BXF 1036 [5]; 52 µM with BXF T24 [6]; 10.1 µM in the assay on BXF 5637; 8.65 µM in the assay with BXF 1352 [7]; 6.8 µM in the assay with BXF 1218L; 7.08 µM in the assay with BXF 1218 [8]. Also, the IC50 turned out to be 9.53 µM with BXF 1036 [9]; 17.1 µM in the assay with BXF 1352 [10]; 4.15 µM in the assay with T24 (BXF T24, 96 h treatment); 9.71 µM in the assay with 5637 (2D assay, BXF 5637, 96 h treatment). Besides, the “IC50, Geo. Mean” value in [1] turned out to be 9.93 µM. The “Bottom plateaus of the concentration-effect curves” value in [1] (responding tumor models) is recorded as under 10%. For the same molecule, the “activity relative to mean IC50 (above average = individual IC50 value < 1/2 mean IC50)” value with BXF 1036 [5] (BXF 1036, based on relative IC50 values) is reported as “above average activity”.
